Measurements as given in patent US20230032020A1, “SMALL-MOLECULE COVALENT INHIBITION OF RAL GTPASES” (THE TRUSTEES OF INDIANA UNIVERSITY, priority 2019, published 2023).
Positions count from the first letter of the chain named. Read-outs that look alike come from different tables or passages of the source.

What was measured:
RalB = target: T1, RalB (Homo sapiens, UniProt P11234); assay: Rgl2-mediated guanine nucleotide exchange assay (BODIPY-FL-GDP fluorescence), RalB wild-type; assay type: biochemical; settings: for improvement in IC50 at 24 h compared to Compound 1: RalB WT
T1 construct: made in house; host or cells: E. coli BL21(DE3)
T1 sequence (P11234 12-185): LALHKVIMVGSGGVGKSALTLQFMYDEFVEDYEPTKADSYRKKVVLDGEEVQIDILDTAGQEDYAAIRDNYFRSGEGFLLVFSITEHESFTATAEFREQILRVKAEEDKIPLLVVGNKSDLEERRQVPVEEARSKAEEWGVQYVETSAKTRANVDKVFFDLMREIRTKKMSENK
Protocol: Fragment-based screening using a library of 89 sulfonyl fluoride compounds was carried out to explore this possibility. A fluorescence-based guanine nucleotide exchange assay was used to measure inhibition of Rgl2-mediated exchange of Ral-bound GDP with fluorescently-labelled boron-dipyrromethene fluorescent GDP (BODIPY-FL-GDP). The increase in fluorescence intensity of the BODIPY-FL group is measured at 30 s intervals.
(§1) A concentration-dependent exchange study then was carried out to obtain the concentration of compound required for 50% inhibition of Rgl2-mediated exchange, as illustrated in FIG. 1D. This was done by incubating RalB with varying concentrations of Compound 1 for 24 hours at a temperature of 4° C., prior to the initiation of nucleotide exchange by the addition of Rgl2 and BODIPY-FL-GDP. The rate constant was calculated by fitting a 3-parameter exponential function for each measurement. To determine percent inhibition, the fitting was also done for control DMSO samples and samples without Rgl2.
(§2) Exchange Assay: 10 μL of RalB (2 μM), RalA (2 μM), and Ras (0.8 μM) in an exchange assay buffer (100 mM NaCl, 10 mM MgCl2, 20 mM Tris pH 8, 0.01% IGEPAL) were added to a 384-well, black, round bottom, low volume, polystyrene plate (Corning, Corning, N.Y., Catalog Number: 4515) and incubated with 2 μL of varying concentrations of compounds in the exchange assay buffer supplemented with 20% v/v DMSO for 24 h (unless otherwise specified) at 4° C. After the incubation, 5 μL of RGL2 (1 μM), SOS (0.4 μM) or buffer was added. Finally, 3 μL of Bodipy-FL-GDP (1.67 μM for RalA/B, 1.0 μM for Ras) was added and the fluorescence was read immediately on an Envision Multilabel Plate Reader (PerkinElmer, Waltham, Mass.) using a filter set with excitation and emission wavelengths of 485 and 535 nm, respectively, for 40 min at 30 sec intervals.
(§3) The fluorescence increase over time was fitted to an exponential function:
(§4) Fluorescence Intensity=Initial Fluorescence+Extent of binding (1−e^−Rate×Time)
(§5) The rate constant of the exchange was calculated by fitting experimental values for Fluorescence Intensity and corresponding Time. The Initial Fluorescence was estimated from the initial reading of the fluorescence intensity from the experimental control sample without guanine exchange factor (GEF). The Extent of binding is the difference between the maximal fluorescence intensity of the DMSO control sample versus the initial fluorescence recorded for the No GEF control sample.
Percent Inhibition and compound concentration are experimental values.

RalB Tyr82Phe mutant = target: T2, RalB Tyr82Phe mutant (Homo sapiens, UniProt P11234, Y82F); assay: Rgl2-mediated guanine nucleotide exchange assay, RalB Tyr82Phe mutant; assay type: biochemical
T2 construct: made in house; host or cells: E. coli BL21(DE3)
T2 sequence (P11234 12-185 Y82F): T1 sequence (P11234 12-185) with Y71F
Protocol: as §1, with “To confirm that inhibition of RalB exchange by Rgl2 was due to covalent bond formation at Tyr-82, the nucleotide exchange study was repeated using RalB Tyr82Phe mutant. […] A” for “A”
as §2, §3, §4, §5
Percent Inhibition and compound concentration are experimental values. Maximum inhibition is set at 100 percent as no plateau were achieved. Minimum inhibition value was data-dependent and were mostly found to be near 0 percent. Due to the fact that the compounds were covalent inhibitors and not classical reversible inhibitors, Hillslope value was not constrained.

[1] = Compound stability assay in buffer; assay type: physicochemical
Protocol: Compound Stability Assay. 200 μM Compound 1 was incubated in a buffer containing 20 mM Tris pH 8.0, 100 mM NaCl, 10 mM MgCl2 at 4° C. for varying amounts time. After the incubation, the samples were centrifuged at 20,000×g for 10 min to remove precipitants prior to being injected into an Agilent EclipsePlus C18 RRHD column (Agilent, Santa Clara, Calif.) on an Agilent 1200 liquid chromatography system (Agilent, Santa Clara, Calif.), using a linear gradient from 100% Buffer A (H2O with 0.1% Formic Acid) to 70% Buffer B (acetonitrile with 0.1% Formic Acid), and the masses were detected on an Agilent 6520 Accurate Mass Q-TOF.

RalA = target: T3, RalA (Homo sapiens, UniProt P11233); assay: Rgl2-mediated guanine nucleotide exchange assay, RalA; assay type: biochemical; settings: concentration not given
T3 construct: made in house; host or cells: E. coli BL21(DE3)
T3 sequence (P11233 1-178): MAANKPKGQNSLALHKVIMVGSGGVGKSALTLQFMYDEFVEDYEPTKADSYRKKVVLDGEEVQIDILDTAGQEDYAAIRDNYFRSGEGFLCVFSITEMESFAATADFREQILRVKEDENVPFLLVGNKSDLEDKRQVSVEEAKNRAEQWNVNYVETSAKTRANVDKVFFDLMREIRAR
Protocol: To further probe the contribution of individual amino acids within the binding site of Compound 1, the effect of the compound on the rate of nucleotide exchange was tested against two RalB mutants, Ser85Ala and Thr69Ala.
as §2, §3, §4
The rate constant of the exchange was calculated by fitting experimental values for Fluorescence Intensity and corresponding Time. […]

[2] = tested on: Pa03C pancreatic cancer cell; assay: Pa03C pancreatic cancer cell growth in 3-D co-culture with fibroblasts; assay type: cell-based; settings: relative to media or DMSO
[3] = IC50 at 24 h (μM) RalB WT, 24 h incubation at 4° C.

Row | SMILES | IC50 (RalB; [3]) [µM] | IC50 (RalB Tyr82Phe mutant) [µM] | further results
1 | COc1cncc(NS(=O)(=O)c2ccc(S(=O)(=O)F)cc2)c1 [Compound 1] | 49.5 ± 2.3 | – | IC50 (RalB; IC50 at 6 h, Rgl2-mediated exchange of RalB, 6 h incubation at 4° C.): 153 ± 29.9 µM; IC50 (RalB Tyr82Phe mutant; read-out: IC50 at 24 h (μM) RalB Tyr82Phe, 24 h incubation at 4° C., NI = No Inhibition): > 100 µM
2 | COc1ncccc1NS(=O)(=O)c1ccc(S(=O)(=O)F)cc1 [Compound 2] | 23.1 ± 6.8 | – | improvement in IC50 at 24 h compared to Compound 1 (RalB): 2 fold; IC50 at 24 h (μM) RalB Tyr82Phe (RalB Tyr82Phe mutant; 24 h incubation at 4° C., NI = No Inhibition): no inhibition
3 | O=S(=O)(F)c1ccc(S(=O)(=O)Nc2cccnc2O)cc1 [Compound 3] | 17 ± 7.7 | 79.3 ± 19 | –
4 | O=S(=O)(F)c1ccc(S(=O)(=O)Nc2ncccc2Cl)cc1 [Compound 4] | 41.7 ± 8.5 | 215 ± 84.5 | –
5 | O=S(=O)(F)c1ccc(S(=O)(=O)Nc2cccc(Cl)n2)cc1 [Compound 5] | 24.4 ± 4.9 | – | improvement in IC50 at 24 h compared to Compound 1 (RalB): 2 fold
6 | O=S(=O)(F)c1ccc(S(=O)(=O)Nc2cccc(F)n2)cc1 [Compound 6] | 51.5 ± 5.2 | – | –
7 | O=S(=O)(F)c1ccc(S(=O)(=O)Nc2cncc(Cl)n2)cc1 [Compound 7] | 49.4 ± 3.5 | – | –
8 | COc1ccc(NS(=O)(=O)c2ccc(S(=O)(=O)F)cc2)cc1 [Compound 9] | 60.3 ± 3 | 100 ± 11.1 | –
9 | CS(=O)(=O)c1ccc(NS(=O)(=O)c2ccc(S(=O)(=O)F)cc2)cn1 [Compound 10] | 147 ± 42 | 238 ± 55.4 | –
10 | COc1cccc(NS(=O)(=O)c2ccc(S(=O)(=O)F)cc2)c1 [Compound 11] | 26 ± 4.6 | 164 ± 42.3 | –
11 | COc1cc(NS(=O)(=O)c2ccc(S(=O)(=O)F)cc2)ccn1 [Compound 12] | 146 ± 14.2 | – | –
12 | CCc1ccc(NS(=O)(=O)c2ccc(S(=O)(=O)F)cc2)cn1 [Compound 13] | 164 ± 26 | – | –
13 | CCc1cncc(NS(=O)(=O)c2ccc(S(=O)(=O)F)cc2)c1 [Compound 14] | 91.4 ± 2.9 | 167 ± 8.7 | –
14 | CCOc1cncc(NS(=O)(=O)c2ccc(S(=O)(=O)F)cc2)c1 [Compound 15] | 85.5 ± 7.9 | 235 ± 167 | –
15 | CC(C)Oc1cncc(NS(=O)(=O)c2ccc(S(=O)(=O)F)cc2)c1 [Compound 16] | 79.5 ± 2.3 | 333 ± 31 | –
16 | COc1cc(Cl)nc(NS(=O)(=O)c2ccc(S(=O)(=O)F)cc2)c1 [Compound 21] | 24 ± 1 | 138 ± 34.2 | –
17 | COc1cccc(NS(=O)(=O)c2ccc(S(=O)(=O)F)cc2)n1 [Compound 22] | 64 ± 4.1 | – | –
18 | COc1ccc(Cl)c(NS(=O)(=O)c2ccc(S(=O)(=O)F)cc2)n1 [Compound 23] | 127 ± 11.7 | – | –
19 | COc1ncccc1NS(=O)(=O)c1ccc(S(=O)(=O)F)c2c1CCCC2 [SOF-371] | – | – | stability relative to Compound 1 [1]: higher stability than Compound 1; inhibition of RalA exchange (RalA): inhibits RalA and Ral B exchange; inhibition of RalB exchange (RalB; 24 h incubation at 4° C.): inhibits RalA and Ral B exchange; inhibition of Y82F (RalB Tyr82Phe mutant; 24 h incubation at 4° C.): inhibits Y82F
20 | COc1cc(F)cc(NS(=O)(=O)c2ccc(S(=O)(=O)F)c3c2OCCO3)c1 [SOF-531] | – | – | inhibition of Pa03C pancreatic cancer cell growth [2]: concentration-dependent inhibition
